Patent publication US9061030B2, “sGC stimulators” (IRONWOOD PHARMACEUTICALS, INC., priority 2010, dated 2015)

Target: T1, Human soluble guanylate cyclase enzyme (hsGC) (Homo sapiens, UniProt Q02108+Q02153)
T1 construct: purchased Enzo Inc. ALX-201-177
T1 sequence (Q02153 1-619): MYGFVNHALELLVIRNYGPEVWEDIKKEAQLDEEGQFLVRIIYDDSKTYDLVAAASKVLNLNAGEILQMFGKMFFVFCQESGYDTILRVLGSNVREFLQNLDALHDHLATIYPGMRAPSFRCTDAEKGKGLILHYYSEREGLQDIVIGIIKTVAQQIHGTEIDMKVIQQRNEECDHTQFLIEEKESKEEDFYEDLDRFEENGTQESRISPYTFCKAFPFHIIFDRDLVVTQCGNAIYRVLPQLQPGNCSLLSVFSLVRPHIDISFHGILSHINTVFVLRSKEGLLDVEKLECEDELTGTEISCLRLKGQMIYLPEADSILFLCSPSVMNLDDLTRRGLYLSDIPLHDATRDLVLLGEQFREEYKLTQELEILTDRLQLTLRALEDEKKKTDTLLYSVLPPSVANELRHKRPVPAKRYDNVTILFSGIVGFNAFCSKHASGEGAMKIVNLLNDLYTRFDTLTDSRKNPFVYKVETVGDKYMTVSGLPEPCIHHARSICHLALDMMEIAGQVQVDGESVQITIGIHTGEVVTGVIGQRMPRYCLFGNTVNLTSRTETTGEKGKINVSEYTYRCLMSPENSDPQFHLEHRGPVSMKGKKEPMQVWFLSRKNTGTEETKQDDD
T1 sequence (Q02108 1-690): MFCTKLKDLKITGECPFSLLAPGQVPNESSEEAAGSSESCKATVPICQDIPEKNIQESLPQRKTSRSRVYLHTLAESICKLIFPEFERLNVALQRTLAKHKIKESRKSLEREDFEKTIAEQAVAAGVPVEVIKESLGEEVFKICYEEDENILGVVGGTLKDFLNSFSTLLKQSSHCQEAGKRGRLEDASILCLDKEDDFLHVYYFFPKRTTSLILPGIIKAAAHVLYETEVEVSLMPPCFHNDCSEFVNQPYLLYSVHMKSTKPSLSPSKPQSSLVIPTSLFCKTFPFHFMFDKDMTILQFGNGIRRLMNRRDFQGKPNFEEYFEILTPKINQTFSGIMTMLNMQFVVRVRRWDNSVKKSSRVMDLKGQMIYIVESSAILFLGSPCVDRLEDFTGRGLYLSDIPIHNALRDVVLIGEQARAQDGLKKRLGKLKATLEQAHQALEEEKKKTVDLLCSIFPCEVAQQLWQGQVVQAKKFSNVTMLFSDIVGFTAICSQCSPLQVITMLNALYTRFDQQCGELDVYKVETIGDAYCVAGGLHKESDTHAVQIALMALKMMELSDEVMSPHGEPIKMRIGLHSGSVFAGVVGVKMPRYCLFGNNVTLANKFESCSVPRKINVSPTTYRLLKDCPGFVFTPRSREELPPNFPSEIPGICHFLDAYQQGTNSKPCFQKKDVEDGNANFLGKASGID
Assay: Purified human sGC enzyme activity assay (with or without SNP)
Assay type: biochemical
Conditions: for sGC Enzyme Activity Increase at 30 μM with SNP / sGC Enzyme Activity Increase at 30 μM without SNP: 30 μM compound
How it was run: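 Purified human sGC (5 ng) incubated 30 min at 37° C with compound at 10 or 30 μM, 300 μM GTP, 2 mM MgCl2 and 1 mM IBMX at pH 8.0, with or without 1 μM SNP. cGMP formed was quantified against a standard curve. Results are given as fold-change in specific activity over DMSO (or DMSO+SNP) control.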

[1] = 1 μM SNP, specific activity vs DMSO and SNP
[2] = without SNP, specific activity vs DMSO control

Row | SMILES | sGC Enzyme Activity Increase at 30 μM with SNP [1] | sGC Enzyme Activity Increase at 30 μM without SNP [2] | sGC Enzyme Activity Increase at 10 μM with SNP (10 μM compound, 1 μM SNP, specific activity vs DMSO and SNP) | sGC Enzyme Activity Increase at 10 μM without SNP (10 μM compound, without SNP, specific activity vs DMSO control)
1 | Fc1ccccc1Cn1nc(-c2ccccn2)nc1-c1cscn1 [Compound I-4] | E (E = 10 to <20 fold increase) | C (C = 2 to <5 fold increase) |  | 
2 | Fc1ccccc1Cn1nc(-c2cscn2)nc1-c1nccs1 [Compound I-40] | D (D = 5 to <10 fold increase) | B (B = 1 to <2 fold increase) |  | 
3 | Fc1ccccc1Cn1nc(-c2ncccn2)nc1-c1nccs1 [Compound I-30] | C (C = 2 to <5 fold increase) | B (B = 1 to <2 fold increase) |  | 
4 | Fc1ccccc1Cn1nc(-c2ccccn2)nc1-c1cocn1 [Compound I-12, 4-(1-(2-fluorobenzyl)-3-(pyridin-2-yl)-1H-1,2,4-triazol-5-yl)oxazole] | E (E = 10 to <20 fold increase) | C (C = 2 to <5 fold increase) |  | 
5 | Fc1ccccc1Cn1nc(-c2ccccn2)nc1-c1nccs1 [Compound I-25] | E (E = 10 to <20 fold increase) | D (D = 5 to <10 fold increase) |  | 
6 | Fc1ccccc1Cn1nc(-c2ccccn2)nc1-c1ncco1 [Compound I-6] | D (D = 5 to <10 fold increase) | D (D = 5 to <10 fold increase) |  | 
7 | Fc1ccc(-c2nc(-c3nccs3)n(Cc3ccccc3F)n2)nc1 [Compound I-38] | E (E = 10 to <20 fold increase) | C (C = 2 to <5 fold increase) |  | 
8 | Fc1ccccc1Cn1nc(-c2ncccn2)nc1-c1cscn1 [Compound I-3] | D (D = 5 to <10 fold increase) | B (B = 1 to <2 fold increase) |  | 
9 | Fc1ccccc1Cn1nc(-c2ccccn2)nc1-c1ccccn1 [Compound I-1] | C (C = 2 to <5 fold increase) | C (C = 2 to <5 fold increase) | B (B = 1 to <2 fold increase) | B (B = 1 to <2 fold increase)

Second part, the compound after the results:

Row | sGC Enzyme Activity Increase at 30 μM with SNP [1] | sGC Enzyme Activity Increase at 30 μM without SNP [2] | sGC Enzyme Activity Increase at 10 μM with SNP (10 μM compound, 1 μM SNP, specific activity vs DMSO and SNP) | sGC Enzyme Activity Increase at 10 μM without SNP (10 μM compound, without SNP, specific activity vs DMSO control) | SMILES
10 | D (D = 5 to <10 fold increase) | C (C = 2 to <5 fold increase) |  |  | Nc1ccnc(-c2nc(-c3nccs3)n(Cc3ccccc3F)n2)n1 [Compound I-48, 2-(1-(2-fluorobenzyl)-5-(thiazol-2-yl)-1H-1,2,4-triazol-3-yl)pyrimidin-4-amine]
11 | D (D = 5 to <10 fold increase) | C (C = 2 to <5 fold increase) |  |  | COC(=O)N(C)c1c(N)nc(-c2nc(-c3nccs3)n(Cc3ccccc3F)n2)nc1N [Compound I-61, methyl 4,6-diamino-2-(1-(2-fluorobenzyl)-5-(thiazol-2-yl)-1H-1,2,4-triazol-3-yl)pyrimidin-5-yl(methyl)carbamate]
12 | F (F = 20 to <50 fold increase) | D (D = 5 to <10 fold increase) |  |  | Nc1ccnc(-c2nc(-c3cscn3)n(Cc3ccccc3F)n2)c1 [Compound I-53, 2-(1-(2-fluorobenzyl)-5-(thiazol-4-yl)-1H-1,2,4-triazol-3-yl)pyridin-4-amine]
13 | E (E = 10 to <20 fold increase) | C (C = 2 to <5 fold increase) |  |  | Fc1ccccc1Cn1nc(-c2nccs2)nc1-c1cscn1 [Compound I-41]
14 | F (F = 20 to <50 fold increase) | D (D = 5 to <10 fold increase) |  |  | Nc1ccnc(-c2nc(-c3nccs3)n(Cc3ccccc3F)n2)c1 [Compound I-44]
15 | C (C = 2 to <5 fold increase) | B (B = 1 to <2 fold increase) |  |  | Fc1ccccc1Cn1nc(-c2ncccn2)nc1-c1cocn1 [Compound I-46]
16 | C (C = 2 to <5 fold increase) | B (B = 1 to <2 fold increase) |  |  | Fc1ccccc1Cn1nc(-c2ccccn2)nc1-n1cncn1 [Compound I-50, 2′-(2-fluorobenzyl)-5′-(pyridin-2-yl)-2′H-1,3′-bi(1′,2′,4-triazole)]
